Measurements reported in patent publication US5468760A, “Aralkyl-N-hydroxyureas as inhibitors of 5-lipoxygenase and oxidation of low density lipoprotein” (American Home Products Corporation, priority 1993, dated 1995).

Tests used:
[1] = test system: low density lipoprotein (LDL); assay: Inhibition of Copper Ion Mediated Oxidation of Low Density Lipoprotein; type: biochemical; details: Cu^+2 mediated oxidation of rabbit or monkey LDL; 37° C., 90 minutes; absorbance at 532 nm
Method: 5. Inhibition of Copper Ion Mediated Oxidation of Low Density Lipoprotein
In this in vitro assay, the inhibition of Cu^+2 mediated oxidation of rabbit or monkey LDL by an invention compound is determined spectrophotometricallly. Oxidation of LDL results in the formation of LDL-diene which absorbs light at 532 nm. Inhibition of oxidation of LDL leads to a decrease in absorbance at 532 nm.
Rabbit or monkey LDL is prepared according to the procedures of Havel, Eder and Gragdon, "The Distribution and Chemical Composition of Ultracentrifugally Separated Lipoproteins in Human Serum,: J. Clin. Invest. 34, 1345-1353 (1955) and Parhtasarathy, Wieland and Steriberg, "A Role for Endothelial Cell Lipoxygenase in the Oxidative Modification of Low Density Lipoprotein," Proc. Natl. Acad. Sci. USA 86, 1046-1050 (1989). Test compound solutions are prepared by dissolving the invention compounds in ethanol at concentrations up to 248 μM. The medium used is Dulbecco's phosphate buffered saline containing 0.5 mg/ml bovine serum albumin. For standards, 0 to 10 μl of an aqueous solution of 1,1,3,3-tetraethoxypropane (1 μmol/ml H2 O) in 4.1 ml of medium is used.
Test compound solution (100 μl) is added to 4 ml of medium in incubation tubes. To each tube is added 10 μl of LDL solution and 25 μl of aqueous copper sulfate solution (1.32 mg/ml H2 O). The tubes are incubated at 37° C. for 90 minutes and the oxidation reaction quenched by addition of 1 ml of thiobarbituric acid solution (0.67% in 50% acetic acid). The tubes are heated at 90° C. for 1 hour, then chilled in an ice bath and the chromophore extracted into 2 ml of n-butanol. Absorbence is read at 532 nm and the results are reported as nmols of malondialdehyde equivalents.
Significant differences (p<0.05) are determined by the Dunnett T-test or by the Student-Newman-Keuls Test for significant differences between means. The assay is conducted using several concentrations [I] of the inhibitor test compounds. […] The IC50 is determined by non-linear regression, plotting log [I] vs. % inhibition. […]

[2] = target: T1, 5-Lipoxygenase (Homo sapiens, UniProt P09917); assay: Inhibition of 5-Lipoxygenase in Human Whole Blood (LTB4, calcium ionophore A23187); type: cell-based; details: 1 μM
T1 construct: endogenous in cells; host or cells: human whole blood from male donors (results expressed per 10^6 neutrophils)
T1 sequence (P09917 1-674): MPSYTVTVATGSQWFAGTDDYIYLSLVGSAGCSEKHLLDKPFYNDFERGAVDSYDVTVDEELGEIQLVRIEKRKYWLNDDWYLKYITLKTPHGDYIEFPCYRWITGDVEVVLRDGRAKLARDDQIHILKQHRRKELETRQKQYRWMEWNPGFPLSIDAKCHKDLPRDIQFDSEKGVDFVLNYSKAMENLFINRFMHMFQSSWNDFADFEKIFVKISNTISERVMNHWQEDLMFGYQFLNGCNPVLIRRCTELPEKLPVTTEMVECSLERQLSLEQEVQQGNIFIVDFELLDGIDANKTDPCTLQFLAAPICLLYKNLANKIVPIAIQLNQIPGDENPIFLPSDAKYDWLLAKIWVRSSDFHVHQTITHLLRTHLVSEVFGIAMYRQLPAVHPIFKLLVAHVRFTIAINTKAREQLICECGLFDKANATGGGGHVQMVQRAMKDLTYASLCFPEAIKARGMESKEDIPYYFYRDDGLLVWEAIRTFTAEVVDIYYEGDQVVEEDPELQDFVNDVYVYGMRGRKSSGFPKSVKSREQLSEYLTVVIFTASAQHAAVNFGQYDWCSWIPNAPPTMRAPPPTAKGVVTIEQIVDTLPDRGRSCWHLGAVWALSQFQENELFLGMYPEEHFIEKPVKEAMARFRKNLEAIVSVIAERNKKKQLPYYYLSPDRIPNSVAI
Method: 1. Inhibition of 5-Lipoxygenase in Human Whole Blood
Blood is obtained in 50-100 ml quantities from male donors. White blood cell counts and differentials are made. Two ml of blood are placed in a 15 ml polypropylene test tube. Test compounds are solubilized in dimethylsulfoxide and diluted in 1:10 in 10% bovine serum albumin in phosphate buffered saline, pH 7.4 resulting in a final dimethylsulfoxide concentration of 0.1% in the blood. Then, solutions of test compounds are added to the blood in a shaking water bath at 37° C. for 10 minutes prior to the addition of 30 μM calcium ionophore (A23 187, Sigma). After ionophore administration, whole blood samples are mixed and incubated for 20 minutes at 37° C. in a shaking water bath. Incubation is terminated by placing samples in an ice bath and immediately adding ethylene glycol-bis-(β-aminoethyl ether)-N,N,N',N'-tetraaceticacid (10 mM). Samples are mixed and centrifuged at 1200 x g for 15 minutes at 4° C. Preparation of samples for evaluation by RIA or ELISA is carried out by the following protocol. Plasma is removed from sample tubes, placed in 15 ml polypropylene test tubes containing 8 ml methanol, and then vortexed to precipitate protein. Samples are stored at -70° C. overnight. The next day, samples are centrifuged at 200 x g for 15 minutes at 4° C. to pellet the precipitate. Samples are dried in a Savant SpeedVac Concentrator, Model SVC 200H, reconstituted to original volume with ice cold RIA or ELISA buffer, and stored at -70° C. until assayed. The assay for eicosanoids (LTB4, TxB2, and PGE2) is performed as described by the manufacturer of the [^3 H]-RIA kit or ELISA kit (LTB4 -Amersham, TxB2 and PGE2 -Caymen Chemical).
The total eicosanoid level in 2 ml of blood is calculated and reported as ng/10^6 neutrophils. Significance is determined by a one-way analysis of variance with least significant difference (LSD) comparisons to control (p≤0.05) and IC50 's (μM) are determined by regression analysis (Finney, 1978). Drug effects are expressed as percent change from control values.

Row | IC50 [1] | inhibition at 1 µM [2] | Structure (SMILES)
1 | 570 nM | 74% | Cc1oc(-c2ccc(F)cc2)nc1COc1cccc(CN(O)C(N)=O)c1 [Example 9, 1-[3-[2-(4-fluorophenyl)-5-methyl-oxazol-4-ylmethoxy]-benzyl]-1-hydroxy-urea]
2 | – | 70% | Cc1oc(-c2ccccc2)nc1COc1cc(F)cc(CN(O)C(N)=O)c1 [Example 13, 1-[3-Fluoro-5-(5-methyl-2-phenyl-oxazol-4-ylmethoxy)-benzyl]-1-hydroxy-urea]

Second part, the compound before the results:

Row | Structure (SMILES) | IC50 [1] | inhibition at 1 µM [2]
3 | Cc1oc(-c2ccccc2)nc1COc1cccc(CN(O)C(N)=O)c1 [Example 1, 1-Hydroxy-1-[3-(5-methyl-2-phenyl-oxazol-4-ylmethoxy)-benzyl]-urea] | 640 nM | 52%
4 | NC(=O)N(O)Cc1cccc(OCc2csc(-c3ccc(Cl)cc3)n2)c1 [Example 6, 1-Hydroxy-1-[3-[2-(4-chloro-phenyl)-thiazol-4-ylmethoxy]-benzyl]-urea] | 590 nM | 68%
5 | NC(=O)N(O)Cc1cccc(OCc2csc(-c3ccccc3)n2)c1 [Example 5, 1-Hydroxy-1-[3-(2-phenyl-thiazol-4-ylmethoxy)-benzyl]-urea] | – | 66%
